From patent publication US20170173002A1, “Compositions and Methods for Treating an Infection” (CMPD LICENSING, LLC, priority 2015, published 2017)

How the values were obtained:
Neisseria gonorrhoeae = experiment: Expected efficacy of antibiotic agents; details: expected efficacy against Neisseria gonorrhoeae
Corynebacterium jeikeium = experiment: Expected efficacy of antibiotic agents; details: expected efficacy against Corynebacterium jeikeium
Shigella boydii = experiment: Expected efficacy of antibiotic agents; details: expected efficacy against Shigella boydii
Pseudomonas aeruginosa = experiment: Expected efficacy of antibiotic agents; details: expected efficacy against Pseudomonas aeruginosa
Clostridium difficile = experiment: Expected efficacy of antibiotic agents; details: expected efficacy against Clostridium difficile
Streptococcus pyogenes = experiment: Expected efficacy of antibiotic agents; details: expected efficacy against Streptococcus pyogenes
Klebsiella oxytoca = experiment: Expected efficacy of antibiotic agents; details: expected efficacy against Klebsiella oxytoca
[1] = system: Corynebacterium urealyticum; experiment: Expected efficacy of antibiotic agents; details: expected efficacy against Corynebacterium urealyticum
Chlamydia pneumoniae = experiment: Expected efficacy of antibiotic agents; details: expected efficacy against Chlamydia pneumoniae
Salmonella typhi = experiment: Expected efficacy of antibiotic agents; details: expected efficacy against Salmonella typhi
Bacteroides fragilis = experiment: Expected efficacy of antibiotic agents; details: expected efficacy against Bacteroides fragilis
Providencia rettgeri = experiment: Expected efficacy of antibiotic agents; details: expected efficacy against Providencia rettgeri
Acinetobacter lwoffii = experiment: Expected efficacy of antibiotic agents; details: expected efficacy against Acinetobacter lwoffii
Pseudomonas fluorescens = experiment: Expected efficacy of antibiotic agents; details: expected efficacy against Pseudomonas fluorescens
Enterobacter sakazakii = experiment: Expected efficacy of antibiotic agents; details: expected efficacy against Enterobacter sakazakii
Citrobacter freundii = experiment: Expected efficacy of antibiotic agents; details: expected efficacy against Citrobacter freundii
Haemophilus influenzae = experiment: Expected efficacy of antibiotic agents; details: expected efficacy against Haemophilus influenzae
[2] = system: Acinetobacter calcoaceticus; experiment: Expected efficacy of antibiotic agents; details: expected efficacy against Acinetobacter calcoaceticus
Vibrio cholerae = experiment: Expected efficacy of antibiotic agents; details: expected efficacy against Vibrio cholerae
Shigella dysenteriae = experiment: Expected efficacy of antibiotic agents; details: expected efficacy against Shigella dysenteriae
Chlamydia trachomatis = experiment: Expected efficacy of antibiotic agents; details: expected efficacy against Chlamydia trachomatis
[3] = system: Haemophilus parainfluenzae; experiment: Expected efficacy of antibiotic agents; details: expected efficacy against Haemophilus parainfluenzae
[4] = system: Staphylococcus epidermidis; experiment: Expected efficacy of antibiotic agents; details: expected efficacy against Staphylococcus epidermidis
Klebsiella pneumoniae = experiment: Expected efficacy of antibiotic agents; details: expected efficacy against Klebsiella pneumoniae
Escherichia coli = experiment: Expected efficacy of antibiotic agents; details: expected efficacy against Escherichia coli
Enterococcus faecalis = experiment: Expected efficacy of antibiotic agents; details: expected efficacy against Enterococcus faecalis
[5] = system: Methicillin resistant staph aureus (MRSA); experiment: Expected efficacy of antibiotic agents; details: expected efficacy against Methicillin resistant staph aureus (MRSA)
Moraxella catarrhalis = experiment: Expected efficacy of antibiotic agents; details: expected efficacy against Moraxella catarrhalis
[6] = system: Klebsiella (Calymmatobacterium) granulomatis; experiment: Expected efficacy of antibiotic agents; details: expected efficacy against Klebsiella (Calymmatobacterium) granulomatis
Mycoplasma pneumoniae = experiment: Expected efficacy of antibiotic agents; details: expected efficacy against Mycoplasma pneumoniae
[7] = system: Viridans group streptococci; experiment: Expected efficacy of antibiotic agents; details: expected efficacy against Viridans group streptococci
Bartonella bacilliformis = experiment: Expected efficacy of antibiotic agents; details: expected efficacy against Bartonella bacilliformis
Enterobacter cloacae = experiment: Expected efficacy of antibiotic agents; details: expected efficacy against Enterobacter cloacae
Proteus mirabilis = experiment: Expected efficacy of antibiotic agents; details: expected efficacy against Proteus mirabilis
Enterobacter aerogenes = experiment: Expected efficacy of antibiotic agents; details: expected efficacy against Enterobacter aerogenes
Diphtheroids = experiment: Expected efficacy of antibiotic agents; details: expected efficacy against Diphtheroids
Haemophilus ducreyi = experiment: Expected efficacy of antibiotic agents; details: expected efficacy against Haemophilus ducreyi
Neisseria meningitidis = experiment: Expected efficacy of antibiotic agents; details: expected efficacy against Neisseria meningitidis
Streptococcus agalactiae = experiment: Expected efficacy of antibiotic agents; details: expected efficacy against Streptococcus agalactiae
Acinetobacter baumannii = experiment: Expected efficacy of antibiotic agents; details: expected efficacy against Acinetobacter baumannii
Peptostreptococcus = experiment: Expected efficacy of antibiotic agents; details: expected efficacy against Peptostreptococcus
Shigella sonnei = experiment: Expected efficacy of antibiotic agents; details: expected efficacy against Shigella sonnei
Citrobacter diversus = experiment: Expected efficacy of antibiotic agents; details: expected efficacy against Citrobacter diversus
Morganella morganii = experiment: Expected efficacy of antibiotic agents; details: expected efficacy against Morganella morganii
Campylobacter jejuni = experiment: Expected efficacy of antibiotic agents; details: expected efficacy against Campylobacter jejuni
Enterococcus faecium = experiment: Expected efficacy of antibiotic agents; details: expected efficacy against Enterococcus faecium
Proteus vulgaris = experiment: Expected efficacy of antibiotic agents; details: expected efficacy against Proteus vulgaris
[8] = system: Staphylococcus aureus (MSSA); experiment: Expected efficacy of antibiotic agents; details: expected efficacy against Staphylococcus aureus (MSSA)
Shigella flexneri = experiment: Expected efficacy of antibiotic agents; details: expected efficacy against Shigella flexneri
Providencia stuartii = experiment: Expected efficacy of antibiotic agents; details: expected efficacy against Providencia stuartii
Bordetella pertussis = experiment: Expected efficacy of antibiotic agents; details: expected efficacy against Bordetella pertussis
Streptococcus pneumoniae = experiment: Expected efficacy of antibiotic agents; details: expected efficacy against Streptococcus pneumoniae
Serratia marcescens = experiment: Expected efficacy of antibiotic agents; details: expected efficacy against Serratia marcescens
[9] = system: gram-positive staphylococci and streptococci; details: background description of the drug; cited from earlier work
Scedosporium apiospermum = experiment: Expected efficacy of antifungal agents; details: expected efficacy against Scedosporium apiospermum
Fusarium species = experiment: Expected efficacy of antifungal agents; details: expected efficacy against Fusarium species
Candida species = experiment: Expected efficacy of antifungal agents; details: expected efficacy against Candida species
Aspergillus niger = experiment: Expected efficacy of antifungal agents; details: expected efficacy against Aspergillus niger
Aspergillus terreus = experiment: Expected efficacy of antifungal agents; details: expected efficacy against Aspergillus terreus
Aspergillus fumigatus = experiment: Expected efficacy of antifungal agents; details: expected efficacy against Aspergillus fumigatus
Aspergillus flavus = experiment: Expected efficacy of antifungal agents; details: expected efficacy against Aspergillus flavus
Coccidioides immitis = details: expected efficacy against Coccidioides immitis
Blastomyces dermatitidis = experiment: Expected efficacy of antifungal agents; details: expected efficacy against Blastomyces dermatitidis
Histoplasma capsulatum = details: expected efficacy against Histoplasma capsulatum
Cryptococcus neoformans = experiment: Expected efficacy of antifungal agents; details: expected efficacy against Cryptococcus neoformans
Leishmania infantum = experiment: Expected efficacy of antifungal agents; details: expected efficacy against Leishmania infantum
[10] = system: Paracoccidioides brasiliensis; experiment: Expected efficacy of antifungal agents; details: expected efficacy against Paracoccidioides brasiliensis
Leishmania donovani = experiment: Expected efficacy of antifungal agents; details: expected efficacy against Leishmania donovani

CN[C@H](CC(C)C)C(=O)N[C@H]1C(=O)N[C@@H](CC(N)=O)C(=O)N[C@H]2C(=O)N[C@H]3C(=O)N[C@H](C(=O)N[C@H](C(=O)O)c4cc(O)cc(O)c4-c4cc3ccc4O)[C@H](O)c3ccc(c(Cl)c3)Oc3cc2cc(c3O[C@@H]2O[C@H](CO)[C@@H](O)[C@H](O)[C@H]2O[C@H]2C[C@](C)(N)[C@H](O)[C@H](C)O2)Oc2ccc(cc2Cl)[C@H]1O [Vancomycin]
no: Efficacy (Neisseria gonorrhoeae) | Efficacy (Shigella boydii) | Efficacy (Brucella species) | Efficacy (Pseudomonas aeruginosa) | Efficacy (Klebsiella oxytoca) | Efficacy (Yersinia pestis) | Efficacy (Legionella pneumophila) | Efficacy (Chlamydia pneumoniae) | Efficacy (Salmonella typhi) | Efficacy (Bacteroides fragilis) | Efficacy (Providencia rettgeri) | Efficacy (Acinetobacter lwoffii) | Efficacy (Chlamydia psittaci) | Efficacy (Pseudomonas fluorescens) | Efficacy (Enterobacter sakazakii) | Efficacy (Citrobacter freundii) | Efficacy (Rickettsiae) | Efficacy (Haemophilus influenzae) | Efficacy [2] | Efficacy (Vibrio cholerae) | Efficacy (Shigella dysenteriae) | Efficacy (Chlamydia trachomatis) | Efficacy [3] | Efficacy (Klebsiella pneumoniae) | Efficacy (Escherichia coli) | Efficacy (Moraxella catarrhalis) | Efficacy [6] | Efficacy (Mycoplasma pneumoniae) | Efficacy (Bartonella bacilliformis) | Efficacy (Enterobacter cloacae) | Efficacy (Clostridium perfringens) | Efficacy (Proteus mirabilis) | Efficacy (Enterobacter aerogenes) | Efficacy (Haemophilus ducreyi) | Efficacy (Neisseria meningitidis) | Efficacy (Acinetobacter baumannii) | Efficacy (Shigella sonnei) | Efficacy (Citrobacter diversus) | Efficacy (Francisella tularensis) | Efficacy (Morganella morganii) | Efficacy (Campylobacter jejuni) | Efficacy (Proteus vulgaris) | Efficacy (Shigella flexneri) | Efficacy (Providencia stuartii) | Efficacy (Bordetella pertussis) | Efficacy (Serratia marcescens)
yes, not VRE: Efficacy (Enterococcus faecium)
yes: Efficacy (Corynebacterium jeikeium) | Efficacy (Clostridium difficile) | Efficacy (Streptococcus pyogenes) | Efficacy [1] | Efficacy [4] | Efficacy (Enterococcus faecalis) | Efficacy [5] | Efficacy [7] | Efficacy (Diphtheroids) | Efficacy (Streptococcus agalactiae) | Efficacy (Peptostreptococcus) | Efficacy [8] | Efficacy (Streptococcus pneumoniae)

C/C(=C\C(=O)OCCCCCCCCC(=O)O)C[C@@H]1OC[C@H](C[C@@H]2O[C@H]2[C@@H](C)[C@@H](C)O)[C@@H](O)C1O (stereo partly drawn) [Mupirocin]
excellent activity: activity against gram-positive staphylococci and streptococci [9]

C[C@@H](c1ncncc1F)[C@](O)(Cn1cncn1)c1ccc(F)cc1F [Voriconazole, voriconazole]
yes: Efficacy (Scedosporium apiospermum) | Efficacy (Fusarium species) | Efficacy (Candida species) | Efficacy (Aspergillus niger) | Efficacy (Aspergillus terreus) | Efficacy (Aspergillus fumigatus) | Efficacy (Aspergillus flavus)

OC(Cn1cncn1)(Cn1cncn1)c1ccc(F)cc1F [Fluconazole]
yes: Efficacy (Coccidioides immitis) | Efficacy (Candida species) | Efficacy (Aspergillus fumigatus) | Efficacy (Aspergillus flavus) | Efficacy (Blastomyces dermatitidis) | Efficacy (Histoplasma capsulatum) | Efficacy (Cryptococcus neoformans)

C[C@@H]1[C@H](O)[C@@H](C)/C=C/C=C/C=C/C=C/C=C/C=C/C=C/[C@H](O[C@@H]2O[C@H](C)[C@@H](O)[C@H](N)[C@@H]2O)C[C@@H]2O[C@](O)(C[C@@H](O)C[C@@H](O)[C@H](O)CC[C@@H](O)C[C@@H](O)CC(=O)O[C@H]1C)C[C@H](O)[C@H]2C(=O)O [Amphotericin, amphotericin b]
yes: Efficacy (Coccidioides immitis) | Efficacy (Candida species) | Efficacy (Leishmania infantum) | Efficacy (Aspergillus niger) | Efficacy (Aspergillus terreus) | Efficacy (Aspergillus fumigatus) | Efficacy [10] | Efficacy (Aspergillus flavus) | Efficacy (Leishmania donovani) | Efficacy (Blastomyces dermatitidis) | Efficacy (Histoplasma capsulatum) | Efficacy (Cryptococcus neoformans)
